Among the data in patent EP2970215B1, “PYRROLIDINE DERIVATIVES, PHARMACEUTICAL COMPOSITIONS CONTAINING THEM, AND THEIR USE IN THERAPY” (AbbVie Deutschland GmbH & Co. KG, priority 2013, dated 2014) are Ki values, retold here.

Molecules are shown by their SMILES.

In general, Ki refers to a dissociation constant, usually derived from enzyme kinetics or from competition with a known ligand.

The test concerns the target T1, human GlyT1c transporter (Homo sapiens, UniProt P48067).
T1 construct: expressed in transfected cells; host or cells: CHO cells (recombinant; line hGlyT1c_5_CHO is named for the uptake assay)
T1 sequence (P48067 1-706): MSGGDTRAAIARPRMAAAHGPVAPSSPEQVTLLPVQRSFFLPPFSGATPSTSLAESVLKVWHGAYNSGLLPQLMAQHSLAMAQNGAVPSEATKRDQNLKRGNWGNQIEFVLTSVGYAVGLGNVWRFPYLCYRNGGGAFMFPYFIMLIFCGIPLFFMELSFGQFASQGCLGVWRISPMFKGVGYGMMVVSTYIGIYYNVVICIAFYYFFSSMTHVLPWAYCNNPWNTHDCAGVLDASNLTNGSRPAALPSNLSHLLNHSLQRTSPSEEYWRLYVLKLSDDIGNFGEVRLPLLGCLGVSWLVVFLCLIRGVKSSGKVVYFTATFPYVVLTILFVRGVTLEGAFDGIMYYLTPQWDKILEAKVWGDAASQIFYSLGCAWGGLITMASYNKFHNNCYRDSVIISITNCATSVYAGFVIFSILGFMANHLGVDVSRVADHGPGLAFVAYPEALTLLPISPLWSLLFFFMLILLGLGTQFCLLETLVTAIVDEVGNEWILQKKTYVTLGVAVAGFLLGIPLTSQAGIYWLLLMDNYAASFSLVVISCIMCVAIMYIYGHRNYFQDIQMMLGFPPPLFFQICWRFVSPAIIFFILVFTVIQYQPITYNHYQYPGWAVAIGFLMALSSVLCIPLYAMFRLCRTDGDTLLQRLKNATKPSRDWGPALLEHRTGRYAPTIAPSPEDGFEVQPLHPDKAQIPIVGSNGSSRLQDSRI
The test is described as follows: Radioligand binding assay using recombinant CHO cell membranes expressing human GlyT1. The following applies: radioligand binding to human GlyT1c transporter-expressing membranes. From the text:
2. Radioligand binding assays using recombinant CHO cell membranes expressing human GlyT1: […]
Turning to `Cc1c(S(=O)(=O)N2C[C@@H](NC(=O)c3cccc(C(F)(F)F)c3Cl)[C@H](c3ccccc3)C2)cnn1C` (relative stereo) [Example 41, 2-chloro-N-{trans-1-[(1,5-dimethyl-1H-pyrazol-4-yl)sulfonyl]-4-phenylpyrrolidin-3-yl}-3-(trifluoromethyl)benzamide], the Ki was at most 10000 nM. As to `CCOCCNC(=O)[C@@H]1CN(S(=O)(=O)c2cn(C)cn2)C[C@H]1c1ccc(F)cc1` [Example 584, (3S,4R)-N-(2-ethoxyethyl)-4-(4-fluorophenyl)-1-[(1-methyl-1H-imidazol-4-yl)sulfonyl]pyrrolidine-3-carboxamide], the Ki was at most 10000 nM. The result for `CC(C)OCCNC(=O)[C@@H]1CN(S(=O)(=O)c2cn(C)cn2)C[C@H]1c1ccc(F)cc1` [Example 587, (3S,4R)-4-(4-fluorophenyl)-1-[(1-methyl-1H-imidazol-4-yl)sulfonyl]-N-[2-(propan-2-yloxy)ethyl]pyrrolidine-3-carboxamide] reads at most 10000 nM; that for `CCCn1cc([C@H]2CN(S(=O)(=O)c3cn(C)cn3)C[C@@H]2c2ccc(F)cc2)nn1` [Example 640, 4-{(3R,4S)-4-(4-fluorophenyl)-1-[(1-methyl-1H-imidazol-4-yl)sulfonyl]pyrrolidin-3-yl}-1-propyl-1H-1,2,3-triazole], at most 1000 nM. For `Cn1cnc(S(=O)(=O)N2C[C@@H](Nc3ccc(F)c(F)c3)[C@H](c3cccc(F)c3)C2)c1` (relative stereo) [Example 197, trans-N-(3,4-difluorophenyl)-4-(3-fluorophenyl)-1-[(1-methyl-1H-imidazol-4-yl)sulfonyl]pyrrolidin-3-amine] the value was at most 1000 nM; for `CCC(CN[C@H]1CN(S(=O)(=O)c2cn(C)cn2)C[C@@H]1c1ccccc1)C(C)C` (stereo partly drawn) [Example 470, (3R,4S)-N-(2-ethyl-3-methylbutyl)-1-[(1-methyl-1H-imidazol-4-yl)sulfonyl]-4-phenylpyrrolidin-3-amine], at most 10000 nM.

As for `Cn1cnc(S(=O)(=O)N2C[C@@H](Nc3cccc(C(F)(F)F)n3)[C@H](c3ccccc3F)C2)c1` (relative stereo) [Example 203, N-{trans-4-(2-fluorophenyl)-1-[(1-methyl-1H-imidazol-4-yl)sulfonyl]pyrrolidin-3-yl}-6-(trifluoromethyl)pyridin-2-amine], the Ki was at most 10000 nM. For `Cc1cc(N[C@H]2CN(S(=O)(=O)c3cn(C)cn3)C[C@@H]2c2ccc(F)cc2)ccc1C(F)(F)F` [Example 676, (3R,4S)-4-(4-fluorophenyl)-1-[(1-methyl-1H-imidazol-4-yl)sulfonyl]-N-[3-methyl-4-(trifluoromethyl)phenyl]pyrrolidin-3-amine] the value was at most 1000 nM.

On to `Cc1nn(C(F)F)c(C)c1S(=O)(=O)N1C[C@@H](NC(=O)c2cccc(C(F)(F)F)c2Cl)[C@H](c2ccccc2)C1` (relative stereo) [Example 39, 2-chloro-N-[trans-1-{[1-(difluoromethyl)-3,5-dimethyl-1H-pyrazol-4-yl]sulfonyl}-4-phenylpyrrolidin-3-yl]-3-(trifluoromethyl)benzamide], for which the Ki is at most 10000 nM. For `Cn1cnc(S(=O)(=O)N2C[C@@H](Nc3ccc(C(F)(F)F)c(Cl)c3)[C@H](c3ccc(F)cc3)C2)c1` (relative stereo) [Example 173, trans-N-[3-chloro-4-(trifluoromethyl)phenyl]-4-(4-fluorophenyl)-1-[(1-methyl-1H-imidazol-4-yl)sulfonyl]pyrrolidin-3-amine] the value was at most 1000 nM; for `Cn1cnc(S(=O)(=O)N2C[C@H](Nc3ccc(F)cn3)[C@@H](c3ccc(F)cc3)C2)c1` [Example 737, 5-fluoro-N-{(3R,4S)-4-(4-fluorophenyl)-1-[(1-methyl-1H-imidazol-4-yl)sulfonyl]pyrrolidin-3-yl}pyridin-2-amine], at most 100 nM.

As to `Cn1cnc(S(=O)(=O)N2C[C@@H](Nc3cccc(C(F)(F)F)c3)[C@H](C3CC3)C2)c1` (relative stereo) [Example 337, Trans-4-cyclopropyl-1-[(1-methyl-1H-imidazol-4-yl)sulfonyl]-N-[3-(trifluoromethyl)phenyl]pyrrolidin-3-amine], the Ki is at most 1000 nM.

For `Cc1cc(N[C@H]2CN(S(=O)(=O)c3cn(C)cn3)C[C@@H]2c2ccc(F)cc2)ccc1Cl` [Example 743, (3R,4S)-N-(4-chloro-3-methylphenyl)-4-(4-fluorophenyl)-1-[(1-methyl-1H-imidazol-4-yl)sulfonyl]pyrrolidin-3-amine], the Ki was at most 100 nM. For `Cn1cnc(S(=O)(=O)N2C[C@@H](NCc3ccc(C(F)(F)F)cc3Cl)[C@H](c3ccc(F)cc3)C2)c1` (relative stereo) [Example 150, trans-N-[2-chloro-4-(trifluoromethyl)benzyl]-4-(4-fluorophenyl)-1-[(1-methyl-1H-imidazol-4-yl)sulfonyl]pyrrolidin-3-amine] the value was at most 1 nM; for `Cc1ccc2sc(CN[C@H]3CN(S(=O)(=O)c4cn(C)cn4)C[C@@H]3c3ccccc3)cc2c1` [Example 437, (3R,4S)-N-[(5-methyl-1-benzothiophen-2-yl)methyl]-1-[(1-methyl-1H-imidazol-4-yl)sulfonyl]-4-phenylpyrrolidin-3-amine], at most 100 nM; for `Cc1nc(-c2ccccc2)sc1CN[C@H]1CN(S(=O)(=O)c2cn(C)cn2)C[C@@H]1c1ccccc1` [Example 473, (3R,4S)-1-[(1-methyl-1H-imidazol-4-yl)sulfonyl]-N-[(4-methyl-2-phenyl-1,3-thiazol-5-yl)methyl]-4-phenylpyrrolidin-3-amine], at most 100 nM. The result for `Cn1cnc(S(=O)(=O)N2C[C@@H](Nc3cc(C(F)(F)F)cnn3)[C@H](c3ccc(F)cc3)C2)c1` (relative stereo) [Example 383, N-{trans-4-(4-fluorophenyl)-1-[(1-methyl-1H-imidazol-4-yl)sulfonyl]pyrrolidin-3-yl} -5 - (trifluoromethyl)pyridazin-3-amine] reads at most 1000 nM; that for `Cn1cnc(S(=O)(=O)N2C[C@@H](C(=O)Nc3cc(Cl)cc(Cl)c3)[C@H](c3ccc(F)cc3)C2)c1` (relative stereo) [Example 244, Trans-N-(3,5-dichlorophenyl)-4-(4-fluorophenyl)-1-[(1-methyl-1H-imidazol-4-yl)sulfonyl]pyrrolidine-3-carboxamide], at most 1000 nM; that for `Cn1cnc(S(=O)(=O)N2C[C@@H]([C@@H]3CCCOC3)[C@H](Nc3cccc(OCc4ccccc4)c3)C2)c1` (mixture of isomers) [Example 794, Trans-N-[3-(benzyloxy)phenyl]-1-[(1-methyl-1H-imidazol-4-yl)sulfonyl]-4-[(3S)-tetrahydro-2H-pyran-3-yl]pyrrolidin-3-amine], at most 1000 nM. The result for `CCCCOc1cc(N[C@H]2CN(S(=O)(=O)c3cn(C)cn3)C[C@@H]2c2ccc(F)cc2)ncn1` [Example 717, 6-butoxy-N-{(3R,4S)-4-(4-fluorophenyl)-1-[(1-methyl-1H-imidazol-4-yl)sulfonyl]pyrrolidin-3-yl}pyrimidin-4-amine] reads at most 100 nM; that for `Cn1cnc(S(=O)(=O)N2C[C@H](Nc3cc(OCC(F)(F)F)ccn3)[C@@H](c3ccc(F)cc3)C2)c1` [Example 807, N-{(3R,4S)-4-(4-fluorophenyl)-1-[(1-methyl-1H-imidazol-4-yl)sulfonyl]pyrrolidin-3-yl}-4-(2,2,2-trifluoroethoxy)pyridin-2-amine], at most 10 nM; that for `CC(C)CCCCCNC(=O)[C@@H]1CN(S(=O)(=O)c2cn(C)cn2)C[C@H]1c1ccc(F)cc1` (relative stereo) [Example 643, Trans-4-(4-fluorophenyl)-N-(6-methylheptyl)-1-[(1-methyl-1H-imidazol-4-yl)sulfonyl]pyrrolidine-3-carboxamide], at most 10000 nM. Turning to `O=S(=O)(CC1CCCCO1)N1CC(Nc2ccc(F)c(F)c2)C(c2ccccc2)C1` (centres unmarked) [Example 498, N-(3,4-difluorophenyl)-4-phenyl-1-[(tetrahydro-2H-pyran-2-ylmethyl)sulfonyl]pyrrolidin-3-amine], the Ki is at most 10000 nM. For `Cn1cnc(S(=O)(=O)N2C[C@@H](Nc3cc(C(F)(F)F)ccn3)[C@H](C3CCCCO3)C2)c1` (relative stereo) [Example 682, N-{Trans-1-[(1-methyl-1H-imidazol-4-yl)sulfonyl]-4-[tetrahydro-2H-pyran-2-yl]pyrrolidin-3-yl}-4-(trifluoromethyl)pyridin-2-amine] the value was at most 100 nM; for `COC[C@H](C)NC[C@@H]1CN(S(=O)(=O)c2cn(C)cn2)C[C@H]1c1ccc(F)cc1` (mixture of isomers) [Example 596, (2S)-N-({trans-4-(4-fluorophenyl)-1-[(1-methyl-1H-imidazol-4-yl)sulfonyl]pyrrolidin-3-yl}methyl)-1-methoxypropan-2-amine], at most 10000 nM; for `Cn1cnc(S(=O)(=O)N2CC(Nc3ccc(F)c(C(F)F)c3)C(c3ccc(F)cc3)C2)c1` (centres unmarked) [Example 310, N-[3-(difluoromethyl)-4-fluorophenyl]-4-(4-fluorophenyl)-1-[(1-methyl-1H-imidazol-4-yl)sulfonyl]pyrrolidin-3-amine], at most 100 nM.
